The assay has as its target 5-hydroxytryptamine receptor 2A (Rattus norvegicus, UniProt P14842). The experiment in a line: Binding affinity at rat 5HT2A receptor.
Chain of 5-hydroxytryptamine receptor 2A (P14842 whole entry): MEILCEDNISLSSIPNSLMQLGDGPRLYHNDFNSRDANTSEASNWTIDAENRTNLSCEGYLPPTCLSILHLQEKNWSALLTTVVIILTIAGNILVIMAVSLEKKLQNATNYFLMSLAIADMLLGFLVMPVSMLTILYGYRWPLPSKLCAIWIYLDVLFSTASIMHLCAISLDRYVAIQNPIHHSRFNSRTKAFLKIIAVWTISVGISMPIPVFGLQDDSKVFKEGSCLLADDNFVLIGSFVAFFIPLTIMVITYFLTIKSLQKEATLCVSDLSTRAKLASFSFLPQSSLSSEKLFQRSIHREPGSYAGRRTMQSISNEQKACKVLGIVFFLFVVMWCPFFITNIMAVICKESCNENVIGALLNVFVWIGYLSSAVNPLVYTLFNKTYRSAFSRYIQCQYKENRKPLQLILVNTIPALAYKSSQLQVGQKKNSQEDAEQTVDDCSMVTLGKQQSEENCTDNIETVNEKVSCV
`O=C1CC(CN2CCN(CCCCC(=O)c3ccc(F)cc3)CC2)C(c2ccccc2)=NN1` (stereo unspecified) had a Ki of 1 µM.

Take `O=C1CC(CN2CCC3(CC2)NCNC3=O)Cc2ccccc21` (stereo unspecified): the Ki is greater than 10 µM.

Consider `COc1cc2c(cc1OC)C(=O)CC(CN1CCC3(CC1)NC(=O)NC3=O)C2` (stereo unspecified), for which the Ki was greater than 10 µM.

Compound `O=C1c2ccoc2CCC1CCN1CCN(C(=O)c2ccc(F)cc2)CC1` (stereo unspecified) showed a Ki of 2 µM.

`O=C1CC(CN2CCN(CCCC(=O)c3ccc(F)cc3)CC2)C(c2ccccc2)=NN1` (stereo unspecified) gave an inhibition constant Ki of 0.275 µM.

With `O=C1CC(CN2CCC(c3noc4cc(F)ccc34)CC2)C(c2ccccc2)=NN1` (stereo unspecified), the affinity, expressed as Ki, was 0.0575 µM.

As usually defined, the Ki is the dissociation constant of the complex between target and ligand, obtained from inhibition or displacement.

(Values after ChEMBL document CHEMBL1145442, “Multistructure 3D-QSAR studies on a series of conformationally constrained butyrophenones docked into a new homology model of the 5-HT2A receptor” (J Med Chem, 2007).)
